Measurements as given in patent US10633375B2, “Oxopicolinamide derivative, preparation method therefor and pharmaceutical use thereof” (Jiangsu Hengrui Medicine Co., Ltd., priority 2016, dated 2020).

How the values were obtained:
human blood = experiment: In vitro anticoagulant effect on human blood (APTT, CT2); details: Table 2; concentration corresponding to 2 times the APTT of the blank control, human plasma
Procedure: Test Example 2: Determination of In Vitro Anticoagulant Effect of the Compounds of the Present Invention on Human Blood
1. Experimental Materials
Plasma: Human blood was collected in blood collection tubes containing no anticoagulant, and then 3.8% sodium citrate (volume ratio 1:9) was added. The tubes were centrifuged at 2500 rpm for 10 minutes at room temperature, and then the plasma was collected and stored at −80° C.;
Reagents: APTT reagent (Activated partial thromboplastin time assay kit, SIEMENS, Art. No. B4218-1), calcium chloride solution;
Instrument: Coagulation instrument (SYSMEX, CA-500).
The divided plasma was melted at room temperature and mixed well. 10000 μM the test compound dissolved in 100% DMSO was diluted to 3000, 300, 200, 150, 75, 30, 10, 3, 0.3 μM with 100% DMSO, and the blank was 100% DMSO. The reagent, plasma, and compound were placed in corresponding positions in the coagulation instrument, and APTT detection of the compound was carried out.
Curve fitting was carried out by graphpad and CT2 was calculated, i.e., the concentration of the compound corresponding to 2 times the APTT of the blank control.

[1] = biological target: Coagulation Factor XIa protease (Homo sapiens (Human), UniProt P03951); experiment: Inhibition of Factor XIa detected by absorption photometry; format: biochemical; details: absorbance at 405 nm, 10 minutes at 37° C.
Coagulation Factor XIa protease, sequence (P03951 388-625): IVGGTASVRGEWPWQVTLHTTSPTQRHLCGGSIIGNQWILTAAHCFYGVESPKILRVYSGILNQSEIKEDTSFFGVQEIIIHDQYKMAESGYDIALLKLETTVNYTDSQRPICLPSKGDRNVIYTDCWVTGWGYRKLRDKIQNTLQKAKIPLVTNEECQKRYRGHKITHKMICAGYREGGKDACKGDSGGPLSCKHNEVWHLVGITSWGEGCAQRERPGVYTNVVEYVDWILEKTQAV
Coagulation Factor XIa protease, sequence (P03951 19-387 partner): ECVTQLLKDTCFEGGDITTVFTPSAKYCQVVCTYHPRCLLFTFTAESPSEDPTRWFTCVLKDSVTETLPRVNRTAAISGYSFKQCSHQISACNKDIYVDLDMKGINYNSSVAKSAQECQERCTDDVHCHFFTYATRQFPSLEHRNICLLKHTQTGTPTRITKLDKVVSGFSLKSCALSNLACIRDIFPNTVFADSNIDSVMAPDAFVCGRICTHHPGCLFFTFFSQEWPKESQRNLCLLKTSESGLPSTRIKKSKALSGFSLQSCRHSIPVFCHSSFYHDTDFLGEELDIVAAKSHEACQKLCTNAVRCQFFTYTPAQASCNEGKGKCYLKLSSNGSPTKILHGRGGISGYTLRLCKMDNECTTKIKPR
Outline: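 Read-out was absorbance at 405 nm after 10 min incubation at 37° C. Compound dilutions in 100% DMSO (200 to 0.002 μM) were combined with FXIa (2.5 μg/ml solution), then FXIa-specific chromogenic substrate (2 mM solution) was added; both are stock concentrations, not final.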

[2] = Pharmacokinetics assay in rats after intragastrical administration; format: in vivo, Sprague-Dawley (SD) rats; details: both sexes, Sprague-Dawley, rat, plasma, po, SD rats, intragastric, 2 mg/kg; for Vd/F: read-out: Apparent Distribution Volume Vz/F; for AUC: read-out: Area Under Curve AUC; for CL/F: read-out: Clearance CLz/F; for half-life: read-out: Half-Life T½ (converted); for MRT: read-out: Mean Residence Time MRT; for Cmax: read-out: Plasma Concentration Cmax
Description: Test Example 3. Pharmacokinetics Assay of the Compounds of the Present Invention
Rats were used as test animals. […] The pharmacokinetic behavior of the compounds of the present invention was studied and evaluated in rats.
56 healthy adult Sprague-Dawley (SD) rats, half male and half female, were purchased from SINO-BRITSH SIPPR/BK LAB. ANIMAL LTD., CO, with License No.: SCXK (Shanghai) 2008-0016.
2.3 Preparation of the Test Compounds
A certain amount of the test compound was weighed, and added with 5% by volume of DMSO, 5% by volume of Tween 80 and 90% normal saline to prepare a 0.2 mg/mL colorless, clear and transparent solution.
After an overnight fast, SD rats were intragastrically administered at a dose of 2.0 mg/kg and an administration volume of 10.0 mL/kg.
Blood (0.2 mL) was taken from the orbital sinus before administration and at 0.5, 1.0, 2.0, 4.0, 6.0, 8.0, 11.0 and 24.0 hours after administration. The samples were stored in heparin anticoagulation tubes, and centrifuged for 10 minutes at 3500 rpm at 4° C. to separate the blood plasma. The plasma samples were stored at −20° C. The rats were fed 2 hours after administration.
The content of the test compound in the plasma of rats after intragastric administration of different concentrations of the drug was determined: 25 μL of rat plasma at each time after administration was taken and added with 30 μL (100 ng/mL) of the internal standard solution of camptothecin and 200 μL of acetonitrile, shaken vertically for 5 minutes, and centrifuged for 10 minutes (4000 rpm). 3.0 μL of the supernatant was taken from the plasma samples for LC/MS/MS analysis.
4. Results of Pharmacokinetic Parameters
Pharmacokinetic parameters of the compounds of the present invention in rats are shown below.

| Structure (SMILES) | CT2, concentration doubling APTT (human blood) [µM] | IC50 [1] [nM] | Vd/F [2] [L/kg] | AUC [2] [ng·h/mL] | CL/F [2] [mL/min/kg] | half-life [2] [h] | MRT [2] [h] | Cmax [2] [ng/mL] |
| --- | --- | --- | --- | --- | --- | --- | --- | --- |
| COc1cn([C@@H](CCOC(C)(C)C)C(=O)Nc2ccc(C(=O)O)cc2)c(=O)cc1-c1cc(Cl)ccc1C(C)=O [Example 111, (S)-4-(2-(4-(2-acetyl-5-chlorophenyl)-5-methoxy-2-oxopyridin-1(2H)-yl)-4-(tert-butoxy)butanamido)benzoic acid] | 3.2 | 18 | 36.7 ± 13.7 | 378 ± 98 | 94.1 ± 30.8 | 4.94 ± 2.33 | 4.41 ± 1.99 | 252 ± 56 |
| COc1cn([C@H](CC2CCC2)C(=O)Nc2ccc(C(=O)O)cc2)c(=O)cc1-c1c(C(C)=O)ccc(Cl)c1F [Example 160, (R)-4-(2-(4-(6-acetyl-3-chloro-2-fluorophenyl)-5-methoxy-2-oxopyridin-1(2H)-yl)-3-cyclobutylpropanamido)benzoic acid] | 3.8 | 68 | 34.6 ± 4.13 | 365 ± 52 | 92.5 ± 12.3 | 4.34 ± 0.35 | 8.3 ± 1.33 | 53.9 ± 20.3 |
| COc1cn([C@H](CCOC(C)(C)C)C(=O)Nc2ccc(C(=O)O)cc2)c(=O)cc1-c1cc(Cl)ccc1C(C)=O [Example 112, (R)-4-(2-(4-(2-acetyl-5-chlorophenyl)-5-methoxy-2-oxopyridin-1(2H)-yl)-4-(tert-butoxy)butanamido)benzoic acid] | >10000 | > 10000 |  |  |  |  |  |  |
| COc1cn([C@@H](Cc2ccccn2)C(=O)Nc2ccc(C(N)=O)cc2)c(=O)cc1-c1cc(Cl)ccc1C(C)=O [Example 85, (S)-4-(2-(4-(2-acetyl-5-chlorophenyl)-5-methoxy-2-oxopyridin-1(2H)-yl)-3-(pyridin-2-yl)propanamido)benzamide] | 6.5 | 92 |  |  |  |  |  |  |
| COCC[C@H](C(=O)Nc1ccc2[nH]c(C(=O)O)cc2c1)n1cc(OC)c(-c2cc(Cl)ccc2C(C)=O)cc1=O [Example 3, (R)-5-(2-(4-(2-acetyl-5-chlorophenyl)-5-methoxy-2-oxopyridin-1 (2H)-yl)-4-methoxybutanamido)-1H-indole-2-carboxylic acid] | >10000 | 1740 |  |  |  |  |  |  |
| COc1cn([C@H](Cc2cnn(C)c2)C(=O)Nc2ccc(C(=O)O)cc2)c(=O)cc1-c1cc(Cl)ccc1C(C)=O [Example 104, (R)-4-(2-(4-(2-acetyl-5-chlorophenyl)-5-methoxy-2-oxopyridin-1 (2H)-yl)-3-(1-methyl-1H-pyrazol-4-yl)propanamido)benzoic acid] | >10000 | 8150 |  |  |  |  |  |  |
| COc1cn([C@@H](CCOC2CCC2)C(=O)Nc2ccc(C(=O)O)cc2)c(=O)cc1-c1cc(Cl)ccc1C(C)=O [Example 164, (S)-4-(2-(4-(2-acetyl-5-chlorophenyl)-5-methoxy-2-oxopyridin-1(2H)-yl)-4-cyclobutoxybutanamido)benzoic acid] | 6.4 | 30 |  |  |  |  |  |  |
| COc1cn([C@@H](Cc2ccccc2)C(=O)Nc2ccc(C(=O)O)cc2)c(=O)cc1-c1c(C(C)=O)ccc(Cl)c1F [Example 31, (S)-4-(2-(4-(6-acetyl-3-chloro-2-fluorophenyl)-5-methoxy-2-oxopyridin-1(2H)-yl)-3-phenylpropanamido)benzoic acid] | 8.5 |  | 21.6 ± 6.31 | 414 ± 77 | 82.5 ± 14.6 | 3.2 ± 1.41 | 3.24 ± 0.93 | 234 ± 66 |
| COc1cn([C@H](Cc2ccccn2)C(=O)Nc2ccc(C(=O)O)cc2)c(=O)cc1-c1cc(Cl)ccc1C(C)=O [Example 81, (R)-4-(2-(4-(2-acetyl-5-chlorophenyl)-5-methoxy-2-oxopyridin-1(2H)-yl)-3-(pyridin-2-yl)propanamido)benzoic acid] | >10000 | 2680 |  |  |  |  |  |  |
| COc1cn(C(Cc2ccn(C3CC3)n2)C(=O)Nc2ccc3ncncc3c2)c(=O)cc1-c1cc(Cl)ccc1C(C)=O (stereo not shown) [Example 98, 2-(4-(2-acetyl-5-chlorophenyl)-5-methoxy-2-oxopyridin-1(2H)-yl)-3-(1-cyclopropyl-1H-pyrazol-3-yl)-N-(quinazolin-6-yl)propanamide] | 7.6 | 40 |  |  |  |  |  |  |
| COc1cn([C@@H](Cc2ccccc2)C(=O)Nc2ccc3nn(C)cc3c2)c(=O)cc1-c1cc(Cl)ccc1C(C)=O [Example 20, (S)-2-(4-(2-acetyl-5-chlorophenyl)-5-methoxy-2-oxopyridin-1(2H)-yl)-N-(2-methyl-2H-indazol-5-yl)-3-phenylpropanamide] | 6.5 | 36 |  |  |  |  |  |  |
| CCC(=O)c1ccc(Cl)cc1-c1cc(=O)n(C(Cc2ccccc2)C(=O)Nc2ccc(C(=O)O)cc2)cc1OC (stereo not shown) [Example 8, 4-(2-(4-(5-chloro-2-propionylphenyl)-5-methoxy-2-oxopyridin-1(2H)-yl)-3-phenylpropanamido)benzoic acid] | 6.4 | 17 |  |  |  |  |  |  |
| COc1cn([C@H](CCOC2CCC2)C(=O)Nc2ccc(C(=O)O)cc2)c(=O)cc1-c1cc(Cl)ccc1C(C)=O [Example 163, (R)-4-(2-(4-(2-acetyl-5-chlorophenyl)-5-methoxy-2-oxopyridin-1 (2H)-yl)-4-cyclobutoxybutanamido)benzoic acid] | >10000 | 9110 |  |  |  |  |  |  |
| COc1cn(C(Cc2ccn(C3CC3)n2)C(=O)Nc2ccc3nn(C)cc3c2)c(=O)cc1-c1cc(Cl)ccc1C(C)=O (stereo not drawn) [Example 97, 2-(4-(2-acetyl-5-chlorophenyl)-5-methoxy-2-oxopyridin-(2H)-yl)-3-(l-cyclopropyl-1H-pyrazol-3-yl)-N-(2-methyl-2H-indazol-5-yl)propanamide] | 5.4 | 36 |  |  |  |  |  |  |
| COc1cn(C(Cc2ccn(C3CC3)n2)C(=O)Nc2ccc(C(=O)O)cc2)c(=O)cc1-c1cc(Cl)ccc1C(C)=O (stereo not shown) [Example 93, 4-(2-(4-(2-acetyl-5-chlorophenyl)-5-methoxy-2-oxopyridin-1(2H)-yl)-3-(1-cyclopropyl-1H-pyrazol-3-yl)propanamido)benzoic acid] | 2.9 | 42 |  |  |  |  |  |  |
| COc1cn([C@@H](Cc2ccn(C3CC3)n2)C(=O)Nc2ccc(C(=O)O)cc2)c(=O)cc1-c1cc(Cl)ccc1C(C)=O [Example 94, (S)-4-(2-(4-(2-acetyl-5-chlorophenyl)-5-methoxy-2-oxopyridin-1(2H)-yl)-3-(1-cyclopropyl-1H-pyrazol-3-yl)propanamido)benzoic acid] | 2.2 | 24 |  |  |  |  |  |  |
| COc1cn(C(Cc2ccccc2)C(=O)Nc2ccc(C(=O)O)cc2)c(=O)cc1-c1cc(Cl)ccc1C(=O)CC1CC1 (stereo not shown) [Example 39, 4-(2-(4-(5-chloro-2-(2-cyclopropylacetyl)phenyl)-5-methoxy-2-oxopyridin-1(2H)-yl)-3-phenylpropanamido)benzoic acid] | 8.3 | 38 |  |  |  |  |  |  |
| CCNC(=O)c1ccc(NC(=O)[C@H](Cc2ccccc2)n2cc(OC)c(-c3cc(Cl)ccc3C(C)=O)cc2=O)cc1 [Example 37, (S)-4-(2-(4-(2-acetyl-5-chlorophenyl)-5-methoxy-2-oxopyridin-1 (2H)-yl)-3-phenylpropanamido)-N-ethylbenzamide] | 7.8 | 29 |  |  |  |  |  |  |
| CCC(=O)c1ccc(Cl)cc1-c1cc(=O)n(C(CC2CCCCO2)C(=O)Nc2ccc(C(=O)O)cc2)cc1OC (stereo not shown) [Example 166] | 7.2 | 42 |  |  |  |  |  |  |
